These results are taken from ChEMBL document CHEMBL1201862, “PubChem BioAssay data set” (2004).

For one test, the target named is Kallikrein-7 (Homo sapiens, UniProt P49862). The experiment in a line: Fluorescence Intensity-based biochemical primary high throughput dose response assay to identify activators of kallikrein-7 (K7) zymogen.
A further test deals with Large T antigen (Simian virus 40, UniProt P03070). The format is functional, Betapolyomavirus macacae.
Test [1] is described as follows: HGIII-sPLA2 enzyme inhibition potency – biochemical, QFRET, IC50, dose response (AID 743457).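 Also: green fluorescence rise as the enzyme cleaves BODIPY PC-A2 in liposomes.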
For the next test, the target named is fMet-Leu-Phe receptor (Homo sapiens, UniProt P21462). Nature of the test: formyl peptide receptor binders – dose response (AID 519). The format is functional.
Test [2] is described as follows: reduction of Shn3 3'UTR-driven luciferase in osteoblasts – cell-based, Clone20 osteoblasts, firefly luciferase, cherry-picked, dose response (AID 624132).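 Also: firefly luciferase luminescence from reporter carrying the Shn3 3'UTR in osteoblasts.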 The format is functional.
A short description of test [3]: loss of viability in HepG2 cells – cell-based, CellTiter-Glo, cherry-picked, cytotoxicity control for Shn3 inhibitor project, dose response (AID 624134). Type of test: functional. (In general: In ATP-based viability assays light output follows the ATP content of the culture.)
The nature of test [4]: non-specific 3'UTR reporter inhibition in Clone20-Shn3RL – cell-based, Renilla luciferase, cherry-picked, counter-screen for Shn3 inhibitor project, dose response (AID 624133). The format is functional.
Test [5] is described as follows: blockers of HIV-1 envelope-mediated cell-cell fusion – cherry-pick, dose response (AID 652057). Type of test: functional, cell-based.
The nature of test [6]: blockers of HIV-1 ZM109 envelope-driven cell-cell fusion – HeLa effector, CEM target cells, luciferase, cherry-pick, dose response (AID 652058).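 Also: luciferase signal from HIV-1 Env mediated cell-cell fusion of effector and target cells.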 Type of test: functional, cell-based.
A short description of test [7]: off-target signal loss in HeLa-CEM21 co-culture – HeLa F-luc CTL cells, cherry-picked, counter-screen for HIV-1 Env fusion inhibitor project, dose response (AID 652040).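 Also: potency for signal decrease marking cytotoxic or nonspecific inhibition.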 Type of test: functional, cell-based. In general terms: Counterscreens check selectivity or assay interference.
Test [8] is described as follows: HIV-1 AD8 envelope cell-cell fusion blockers – cherry-pick, dose response (AID 652062).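 Also: luciferase signal from cell-cell fusion driven by HIV-1 clade B AD8 Env; potency is for inhibitors of fusion seen as a drop in luminescence.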 Type of test: functional, cell-based.
Test [9] is described as follows: Shn3 3'UTR reporter signal decrease – cell-based, Clone20 osteoblasts, firefly luciferase, cherry-pick, set 2, Schnurri-3 inhibitor project, dose response (AID 720490).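 Also: actives lower the luminescence signal as inhibitors.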 The format is functional.
The target of the next test is Paired box protein Pax-8 (Homo sapiens, UniProt Q06710). The experiment in a line: PAX8 transcriptional activity inhibition in RMG-I – RMG-I cells, luciferase, cherry-pick, dose response (AID 687027).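 Also: luciferase reporter driven by Pax8 target thyroperoxidase promoter measured by SteadyGlo luminescence.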 The format is functional, cell-based.
Test [10] can be described thus: OVCAR-3 cell viability loss – plate reader, dry powder samples, PAX8 inhibitor project, dose response (AID 743044). Type of test: functional, cell-based.
The nature of test [11]: IGROV1 cell killing – plate reader, dry powder samples, PAX8 inhibitor project, dose response (AID 743043). The format is functional, cell-based. The settings on record: IGROV-1.
Test [12] in a line: OVCAR8 cell viability loss – plate reader, dry powder samples, PAX8 project, dose response (AID 743197). The format is functional, cell-based. Particulars: OVCAR-8.
Test [13] in a line: rise of 2N DNA cells, HeLa – IC50, dose response (AID 1117349). The format is functional, cell-based.
A short description of test [14]: CellTiter-Glo luminescence survival assay, SW480 colon tumor line, concentration-response curve, half-maximal inhibitory concentration (AID 1117338). Type of test: functional.
Test [15] can be described thus: RKO cell viability reduction, dose response, CellTiter-Glo luminescence (AID 1117322). Type of test: functional.
Test [16] can be described thus: cytotoxicity toward HCT116 cells – cell-based, CellTiter-Glo luminescence, IC50, dose response (AID 1117332). The format is functional. Particulars: HCT-116.
A short description of test [17]: SNU-C1 cell viability reduction, dose response, CellTiter-Glo luminescence (AID 1117323). The format is functional, cell-based.
Test [18] can be described thus: cytotoxicity toward Colo320 cells – cell-based, CellTiter-Glo luminescence, IC50, dose response (AID 1117334). Type of test: functional. The settings on record: COLO 320.
A short description of test [19]: rise of 4N DNA cells, HeLa – IC50, dose response (AID 1117351). Type of test: functional, cell-based.
A short description of test [20]: cytotoxicity toward HT-29 cells – cell-based, CellTiter-Glo luminescence, IC50, dose response (AID 1117330). Type of test: functional.
Test [21] is described as follows: Reduced DLD-1 viability, concentration-response, CellTiter-Glo luminescence (AID 1117352). The format is functional.
Test [22] is described as follows: HCT116 cell viability decrease, GSK3B pretreatment – CellTiter-Glo, IC50, dose response (AID 1117339). The format is functional. The settings on record: HCT-116.
Test [23] can be described thus: Late stage assay provider results from the probe development effort to identify selective inhibitors of heat shock protein 90 (HSP90): Absorbance-based cell proliferation assay in SKBR3 cells. Type of test: functional. The settings on record: SK-BR-3.
Test [24] can be described thus: Late stage assay provider results from the probe development effort to identify selective inhibitors of heat shock protein 90 (HSP90): Absorbance-based cell proliferation assay in MCF7 cells. The format is functional.

SMILES strings stand for the structures. Activity calls are given as the source filed them. Bounds are passed on as bounds.

Kallikrein-7, sequence (P49862 whole entry): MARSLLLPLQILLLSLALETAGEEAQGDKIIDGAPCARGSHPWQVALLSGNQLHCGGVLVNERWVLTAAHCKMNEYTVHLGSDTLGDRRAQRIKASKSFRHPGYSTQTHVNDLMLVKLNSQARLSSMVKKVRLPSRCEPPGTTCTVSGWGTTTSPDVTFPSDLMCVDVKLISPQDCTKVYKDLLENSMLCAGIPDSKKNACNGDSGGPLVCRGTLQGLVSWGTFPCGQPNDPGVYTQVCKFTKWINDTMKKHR
Large T antigen, sequence (P03070 whole entry): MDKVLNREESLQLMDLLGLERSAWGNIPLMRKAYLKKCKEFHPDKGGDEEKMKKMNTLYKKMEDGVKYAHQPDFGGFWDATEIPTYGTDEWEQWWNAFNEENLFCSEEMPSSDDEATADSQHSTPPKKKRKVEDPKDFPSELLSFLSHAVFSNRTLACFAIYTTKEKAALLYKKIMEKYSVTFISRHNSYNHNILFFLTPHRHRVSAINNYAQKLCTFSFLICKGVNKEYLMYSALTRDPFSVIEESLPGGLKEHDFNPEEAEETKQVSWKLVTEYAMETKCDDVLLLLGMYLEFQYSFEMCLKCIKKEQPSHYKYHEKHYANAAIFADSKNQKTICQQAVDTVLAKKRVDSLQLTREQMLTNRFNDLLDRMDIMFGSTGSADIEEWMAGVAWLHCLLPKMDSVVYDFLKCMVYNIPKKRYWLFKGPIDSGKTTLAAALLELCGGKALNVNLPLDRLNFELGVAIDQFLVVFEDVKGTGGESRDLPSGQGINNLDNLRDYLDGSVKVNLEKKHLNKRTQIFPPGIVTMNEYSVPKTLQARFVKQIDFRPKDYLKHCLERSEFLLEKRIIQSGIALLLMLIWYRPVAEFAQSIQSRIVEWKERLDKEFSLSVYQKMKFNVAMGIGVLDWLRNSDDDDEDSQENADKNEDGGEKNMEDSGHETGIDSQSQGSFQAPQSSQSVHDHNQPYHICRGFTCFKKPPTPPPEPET
fMet-Leu-Phe receptor, sequence (P21462 whole entry): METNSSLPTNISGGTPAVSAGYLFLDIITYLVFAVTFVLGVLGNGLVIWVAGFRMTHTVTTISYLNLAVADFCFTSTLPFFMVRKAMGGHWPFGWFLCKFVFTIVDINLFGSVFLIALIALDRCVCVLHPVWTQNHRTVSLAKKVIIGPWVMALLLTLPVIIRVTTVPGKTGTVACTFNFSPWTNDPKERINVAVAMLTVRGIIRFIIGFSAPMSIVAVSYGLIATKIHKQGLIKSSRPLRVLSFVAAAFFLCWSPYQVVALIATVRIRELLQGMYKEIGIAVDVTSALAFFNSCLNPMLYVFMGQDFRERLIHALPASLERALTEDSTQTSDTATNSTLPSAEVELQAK
Paired box protein Pax-8, sequence (Q06710 whole entry): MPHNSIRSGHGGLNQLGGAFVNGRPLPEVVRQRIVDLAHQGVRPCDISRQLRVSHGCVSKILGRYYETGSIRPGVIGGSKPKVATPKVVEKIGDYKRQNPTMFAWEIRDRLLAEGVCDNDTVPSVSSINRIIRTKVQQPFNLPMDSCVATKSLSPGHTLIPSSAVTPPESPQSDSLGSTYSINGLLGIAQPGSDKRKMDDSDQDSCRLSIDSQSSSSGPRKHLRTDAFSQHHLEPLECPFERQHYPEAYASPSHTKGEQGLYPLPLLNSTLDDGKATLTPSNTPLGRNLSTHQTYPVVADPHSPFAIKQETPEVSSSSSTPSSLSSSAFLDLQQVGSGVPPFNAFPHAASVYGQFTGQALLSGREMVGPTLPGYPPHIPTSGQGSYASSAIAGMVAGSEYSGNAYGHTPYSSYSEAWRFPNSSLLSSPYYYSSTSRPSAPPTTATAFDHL

Regarding `CCN1CCN(c2cc(C)c3cc(NC(=O)c4ccc(C)c(C)c4)ccc3n2)CC1`, the EC50 – broadly, the concentration giving half of the maximal effect – at Kallikrein-7 was 17.2 µM (inactive).

As for `CNc1nn(-c2cccc(Cl)c2)nc1N`, the values for the IC50 (at Large T antigen; in [1]) were 29.9 µM (active) and > 122 µM (inactive), respectively. Further, at fMet-Leu-Phe receptor, the Ki – broadly, the equilibrium dissociation constant of an inhibitor or competing ligand from its target – is > 66.7 µM (inactive).

In the case of `CCOc1ccc(N(C)S(=O)(=O)c2cc(-c3cc(C)no3)ccc2C(C)C)cc1`, the concentration at half-maximal activity (AC50) (in general, the concentration at which the activity in the assay is half-maximal) was 4.13 µM (active) in [2]; 58.4 µM (active) in test [3]; 16.7 µM (active) in [4]; 1.32 µM (active) in test [5]; 3 µM (active) in test [6]; 1.27 µM (active) in test [7]. Moreover, the AC50 is 7.87 µM (active) in [8] and 5.22 µM (active) in [9].

Turning to `COc1ccccc1S(=O)(=O)N(C)C[C@H]1Oc2cc(C#CCC3CCCC3)ccc2S(=O)(=O)N([C@H](C)CO)C[C@H]1C`, the AC50 is 4.83 µM (active) at Paired box protein Pax-8, 35.5 µM (active) in test [10], 55.4 µM (active) in test [11] and 64 µM (active) in test [12].

`Cc1ccc2nc(N)[nH]c(=O)c2c1Sc1ccncc1`: the IC50 (commonly the concentration that gives 50% inhibition) is > 10 µM (inactive) in [13]; 2.24 µM (active) in [14]; 0.343 µM (active) in test [15]; 3.5 µM (active) in test [16]; > 20 µM (inactive) in [17]; > 20 µM (inactive) in test [18]. The IC50 in test [19] is > 10 µM (inactive); in [20], 4.75 µM (active); in [21], > 20 µM (inactive); in test [22], 0.83 µM (active).

As for `N#Cc1cc2ccc(OCc3cccc(C(=O)O)c3)cc2oc1=O`, the IC50 in test [23] and in [24] was > 100 µM (inactive) in each case.

With `COC(=O)c1cccc(COc2ccc3cc(C#N)c(=O)oc3c2)c1`, the IC50 in test [23] and in test [24] was > 100 µM (inactive) each time.
